We go through 1 substance from US20160000762A1, “IMPROVING COGNITIVE FUNCTION” (THE REGENTS OF THE UNIVERSITY OF CALIFORNIA, priority 2013, published 2016).

For one assay, the target named is T1, APP (Rattus norvegicus, UniProt P08592).
T1 construct: BTA-EG4 increased endogenous cell surface APP levels in primary cortical neurons; endogenous in cells; host or cells: primary cortical neurons
The experiment in a line: Cell surface biotinylation, primary cortical neurons. Format: cell-based. Particulars: 5 μM, 24 h. As to the method: Cell surface biotinylation. COS7 cells were transiently transfected with APP for 24 hr in OPTI-MEM® containing 10% fetal bovine serum, and then treated with BTA-EG4 or control for 24 hr. After 24 hr, surface proteins were biotin labeled, immobilized with NeutrAvidin™ Gel and incubated 1 h with SDS-PAGE sample buffer, including 50 mM DTT, as described previously (Minami et al., 2010). Eluates were analyzed for APP by immunoblotting.
It is well known that the majority of a-secretase activity occurs on the cell surface, while β- and γ-secretase activity occurs primarily in the early and late endosomes (Huse et al., 2000; Reiss et al., 2006). Thus, if APP is present at the cell's surface, it is preferentially cleaved by α-secretase, resulting in decreased Aβ production. Therefore, we examined whether BTA-EG4 regulates cell surface expression of APP. To test this initially, COS7 cells were transfected with human APP and treated with BTA-EG4 (5 μM) or control (10% DMSO) for 24 h. […] Furthermore, BTA-EG4 increased endogenous cell surface APP levels in primary cortical neurons following 24 h of BTA-EG4 (5 μM) treatment compared with control (10% DMSO) treatment (FIG. 1I). In an alternative approach to examine the effect of BTA-EG4 on cell surface APP expression, we conducted live cell-surface immunostaining in primary hippocampal neurons.

Another assay relates to soluble Aβ 40. The experiment in a line: Aβ ELISA, 3× Tg AD mice. Format: in vivo. To be noted: 30 mg/kg daily, 2 weeks. The method, then: Aβ ELISA. Mouse brains were homogenized in tissue homogenization buffer containing 250 mM sucrose, 20 mM Tris base, protease, and phosphatase inhibitors. To measure soluble Aβ, DEA extraction was performed. Crude 10% homogenate was mixed with an equal volume of 0.4% diethylamine (DEA), sonicated, and ultracentrifuged for 1 hr at 100,000×g. The supernatant was collected and neutralized with 10% 0.5 M Tris, pH 6.8. Sensitive and specific ELISAs to rodent Aβ1-40 was purchased from IBL Transatlantic (Toronto, Canada) and conducted per the manufacturer's protocol.

The subject of a further assay is dendritic spines. The experiment in a line: Golgi staining, dendritic spines of APP knockout mice. It is filed as in vivo. Particulars: hippocampal CA1 neurons; 30 mg/kg, 2 weeks. From the text:
Animals. Wild-type C57BL/6J and APP knockout mice (B6.12957-APPtm1Dbo/J) were obtained from Jackson Laboratories (Bar Harbor, Me., USA). CD1 mice were obtained from Vivasource. All animal experiments were approved by the Institutional Animal Care and Use Committees at Georgetown University and Johns Hopkins University. All animals were maintained according to protocols approved by the Animal Welfare and Use Committee at both institutes.
Golgi staining and morphological analysis of dendritic spines. To analyze dendritic spine density and morphology in brain, FD RAPID GOLGISTAIN KIT™ (FD NeuroTechnologies, Ellicott City, Md., USA) was used. Dissected mouse brains were immersed in Solution A and B for 2 weeks in dark conditions at room temperature and transferred into Solution C for 24 h at 4° C. Brains were sliced using a VT1000S Vibratome (Leica, Bannockburn, Ill., USA) at 150 μm thickness. Dendritic images were acquired by Axioplan 2 (Zeiss, Oberkochen, Germany) under brightfield microscopy. Spine width, length, and linear density of cortical layers II/III and CA1 of hippocampus were measured using Scion image software (Scion Corporation, Frederick, Md., USA). Images were coded, and dendritic spines counted in a blinded manner. Spines from 0.2 to 2 μm in length were included for analysis. All morphological analysis was done blind to experimental conditions. […]

T1 sequence (P08592 18-770): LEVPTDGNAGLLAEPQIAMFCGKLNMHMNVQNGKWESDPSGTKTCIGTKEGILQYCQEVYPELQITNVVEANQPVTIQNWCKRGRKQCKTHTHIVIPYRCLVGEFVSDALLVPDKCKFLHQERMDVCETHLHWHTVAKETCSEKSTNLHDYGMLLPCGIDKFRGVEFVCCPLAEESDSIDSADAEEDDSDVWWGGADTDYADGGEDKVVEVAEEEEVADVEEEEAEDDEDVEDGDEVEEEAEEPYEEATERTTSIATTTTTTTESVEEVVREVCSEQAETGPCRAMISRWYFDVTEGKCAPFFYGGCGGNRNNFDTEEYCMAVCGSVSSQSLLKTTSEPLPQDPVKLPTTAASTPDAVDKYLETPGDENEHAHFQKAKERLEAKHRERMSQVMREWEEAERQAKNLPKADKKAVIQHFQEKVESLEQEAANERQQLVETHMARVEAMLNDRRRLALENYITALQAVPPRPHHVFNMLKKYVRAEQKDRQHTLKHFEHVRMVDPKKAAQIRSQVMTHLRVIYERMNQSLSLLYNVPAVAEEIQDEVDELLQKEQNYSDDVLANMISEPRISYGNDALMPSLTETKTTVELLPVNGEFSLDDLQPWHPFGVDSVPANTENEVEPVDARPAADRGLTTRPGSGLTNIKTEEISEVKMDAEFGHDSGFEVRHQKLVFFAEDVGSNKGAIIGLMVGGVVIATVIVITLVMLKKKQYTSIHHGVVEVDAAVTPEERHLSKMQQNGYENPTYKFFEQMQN

With BTA-EG4, on APP, the “endogenous cell surface APP levels” value is given as “increased”. Besides, the “soluble Aβ 40 levels” value with soluble Aβ 40 (2-3 months) is “decrease”. In addition, the “soluble Aβ 40 level” value with soluble Aβ 40 (6-10 months) was “without changes”; in the assay on soluble Aβ 40 (13-16 months) it was “none of the measured parameters were significantly altered”. The dendritic spine density entry with dendritic spines is “did not find a statistically significant increase”.
